This is an account of results in patent US7652022B2, “Diaryl urea derivatives useful for the treatment of protein kinase dependent diseases” (Novartis AG, priority 2002, dated 2010).

Data set [1] addresses T1, cytoplasmic kinase domain of human Flt-3 (Homo sapiens, UniProt P36888).
T1 construct: amino acids 563-993 of the cytoplasmic kinase domain of human Flt-3; made in house; host or cells: Sf9 insect cells (baculovirus, donor vector pFbacG01)
T1 sequence (P36888 563-993): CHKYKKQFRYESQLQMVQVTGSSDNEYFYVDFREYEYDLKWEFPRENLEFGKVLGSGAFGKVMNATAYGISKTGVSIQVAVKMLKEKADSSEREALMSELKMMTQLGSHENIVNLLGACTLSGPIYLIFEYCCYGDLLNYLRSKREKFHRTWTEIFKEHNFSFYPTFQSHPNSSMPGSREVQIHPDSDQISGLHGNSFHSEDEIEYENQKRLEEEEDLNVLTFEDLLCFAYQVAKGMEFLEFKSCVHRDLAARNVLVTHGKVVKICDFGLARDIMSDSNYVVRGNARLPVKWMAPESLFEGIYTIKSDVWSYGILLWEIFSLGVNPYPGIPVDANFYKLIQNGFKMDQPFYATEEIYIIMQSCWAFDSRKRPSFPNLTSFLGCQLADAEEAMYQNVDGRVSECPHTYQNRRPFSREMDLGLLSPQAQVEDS
The data set can be described thus: Flt3 kinase inhibition, GST-Flt-3 filter binding assay. The data set is classed as biochemical. The settings on record: % inhibition at 10 μM. The method, then: Flt3 kinase inhibition is determined as follows: The baculovirus donor vector pFbacG01 (GIBCO) is used to generate a recombinant baculovirus expressing the amino acid region amino acids 563-993 of the cytoplasmic kinase domain of human Flt-3. The coding sequence for the cytoplasmic domain of Flt-3 is amplified by PCR from human c-DNA libraries (Clontech). The amplified DNA fragments and the pFbacG01 vector are made compatible for ligation by digestion with BamH1 and HindIII. Ligation of these DNA fragments results in the baculovirus donor plasmid Flt-3(1.1). The production of the viruses, the expression of proteins in Sf9 cells and the purification of the GST-fused proteins are performed as follows:
Production of virus: Transfer vector (pFbacG01-Flt-3) containing the Flt-3 kinase domain is transfected into the DH10Bac cell line (GIBCO) and the transfected cells are plated on selective agar plates. Colonies without insertion of the fusion sequence into the viral genome (carried by the bacteria) are blue. Single white colonies are picked and viral DNA (bacmid) is isolated from the bacteria by standard plasmid purification procedures. Sf9 or Sf21 cells (American Type Culture Collection) are then transfected in flasks with the viral DNA using Cellfectin reagent. Determination of small scale protein expression in Sf9 cells: Virus containing media is collected from the transfected cell culture and used for infection to increase its titre. Virus containing media obtained after two rounds of infection is used for large-scale protein expression. For large-scale protein expression 100 cm^2 round tissue culture plates are seeded with 5×10^7 cells/plate and infected with 1 mL of virus-containing media (approx. 5 MOIs). After 3 days the cells are scraped off the plate and centrifuged at 500 rpm for 5 min. Cell pellets from 10-20, 100 cm^2 plates, are resuspended in 50 mL of ice-cold lysis buffer (25 mMTris-HCl, pH 7.5, 2 mM EDTA, 1% NP-40, 1 mM DTT, 1 mM PMSF). The cells are stirred on ice for 15 min and then centrifuged at 5000 rpms for 20 min. Purification of GST-tagged proteins: The centrifuged cell lysate is loaded onto a 2 mL glutathione-sepharose column (Pharmacia) and washed three times with 10 mL of 25 mM Tris-HCl, pH 7.5, 2 mM EDTA, 1 mM DTT, 200 mM NaCl. The GST-tagged protein is then eluted by 10 applications (1 mL each) of 25 mM Tris-HCl, pH 7.5, 10 mM reduced-glutathione, 100 mM NaCl, 1 mM DTT, 10% Glycerol and stored at −70° C. Measurement of enzyme activity: Tyrosine protein kinase assays with purified GST-Flt-3 are carried out in a final volume of 30 μL containing 200-1800 ng of enzyme protein (depending on the specific activity), 20 mM Tris-HCl, pH 7.6, 3 mM MnCl2, 3 mM MgCl2, 1 mM DTT, 10 μM Na3VO4, 3 μg/mL poly(Glu,Tyr) 4:1, 1% DMSO, 8.0 μM ATP and 0.1 μCi [γ^33 P] ATP). The activity is assayed in the presence or absence of inhibitors, by measuring the incorporation of ^33P from [γ^33P] ATP into the poly(Glu,Tyr) substrate. The assay (30 μL) is carried out in 96-well plates at ambient temperature for 20 min under conditions described below and terminated by the addition of 20 μL of 125 mM EDTA. Subsequently, 40 μL of the reaction mixture is transferred onto Immobilon-PVDF membrane (Millipore, Bedford, Mass., USA) previously soaked for 5 min with methanol, rinsed with water, then soaked for 5 min with 0.5% H3PO4 and mounted on vacuum manifold with disconnected vacuum source. After spotting all samples, vacuum is connected and each well rinsed with 200 μL 0.5% H3PO4. Membranes are removed and washed 4× on a shaker with 1.0% H3PO4, once with ethanol. Membranes are counted after drying at ambient temperature, mounting in Packard TopCount 96-well frame, and addition of 10 μL/well of Microscint™ (Packard). IC50 values are calculated by linear regression analysis of the percentage inhibition of each compound in duplicate, at four concentrations (usually 0.01, 0.1,1 and 10 μM). […]

Turning to `O=C(Nc1ccc(Oc2ccncc2)cc1)Nc1ccc(OCC(F)(F)F)c(C(F)(F)F)c1` [Example 10], in data set [1], the “Flt3 (% at 10 μM)” value worked out at 100%.

`CCc1ccc(NC(=O)Cc2ccc(Oc3ccncc3)cc2)cc1` [Example 16, N-(4-pyridin-4-yl-oxy-phenyl)acetyl-(4-ethyl-phenyl)-amide]: the “Flt3 (% at 10 μM)” value in data set [1] came out at 94%.

Consider `Cc1ccc(NC(=O)Cc2ccc(Oc3ccncc3)cc2)cc1` [Example 17], for which the “Flt3 (% at 10 μM)” value in data set [1] was 92%.

Turning to `CCCc1ccc(NC(=O)Nc2ccc(Cc3ccncc3)cc2)cc1` [Example 12], the “Flt3 (% at 10 μM)” value in data set [1] came out at 92%.

In the case of `O=C(Nc1ccc(Oc2ccncc2)cc1)Nc1ccc(Br)c(C(F)(F)F)c1` [Example 9], the “Flt3 (% at 10 μM)” value in data set [1] stood at 90%.

Turning to `CN(C(=O)Nc1cccc(C(F)(F)F)c1)c1ccc(Oc2ccncc2)cc1` [Example 6], the “Flt3 (% at 10 μM)” value in data set [1] was 87%.

On to `Cc1ccc(NC(=O)Nc2ccc(Cc3ccncc3)cc2)cc1` [Example 14], for which the “Flt3 (% at 10 μM)” value in data set [1] is 89%.

For orientation: melting point means the temperature of the solid-liquid transition. Compound `O=C(Nc1cccc(C(F)(F)F)c1)N1CCCc2cc(Oc3ccncc3)ccc21` [Example 20] showed a melting point of 185.5 to 188 °C. In data set [1], the “Flt3 (% at 10 μM)” value is given as 69%.

As for `O=C(Nc1ccc(Cc2ccncc2)cc1)Nc1cccc(C(F)(F)F)c1` [Example 15], in data set [1], the “Flt3 (% at 10 μM)” value worked out at 96%.

Turning to `COc1cc(NC(=O)Nc2ccc(Oc3ccncc3)cc2)cc(C(F)(F)F)c1` [Example 11], the “Flt3 (% at 10 μM)” value in data set [1] came to 100%.

Consider `O=C(Nc1ccc(Oc2cc(Nc3ccc(O)cc3)ncn2)cc1)Nc1ccc(OCC(F)(F)F)c(C(F)(F)F)c1` [Example 32], for which, in data set [1], the “Flt3 (% at 10 μM)” value was determined as 100%.

For `O=C(Nc1cccc(C(F)(F)F)c1)N1CCc2cc(Oc3ccncc3)ccc21` [Example 19, 5(4-pyridyloxy)-N-(3-trifluoromethyl-phenyl)amino-carbonyl-2,3-dihydroindole], the melting point fell in the range of 171 to 172.5 °C. For the same compound, the “Flt3 (% at 10 μM)” value in data set [1] is reported as 63%.

For the compound `CCCc1ccc(NC(=O)Cc2ccc(Oc3ccncc3)cc2)cc1` [Example 18], the “Flt3 (% at 10 μM)” value in data set [1] is recorded as 88%.

As for `Cc1ccc(NC(=O)N(C)c2ccc(Oc3ccncc3)cc2)cc1` [Example 8], the “Flt3 (% at 10 μM)” value in data set [1] came to 57%.

With `O=C(Nc1ccc(Oc2cc(Cl)ncn2)cc1)Nc1cccc(C(F)(F)F)c1` [Example 21, N-(4-(6-Chloropyrimidin-4-yl)-oxyphenyl)-N′-(3-trifluoromethylphenyl)-urea], the melting point was in the range of 187.4 to 189.7 °C. Besides, in data set [1], the “Flt3 (% at 10 μM)” value worked out at 94%.

For `CCc1ccc(NC(=O)N(C)c2ccc(Oc3ccncc3)cc2)cc1` [Example 5], the “Flt3 (% at 10 μM)” value in data set [1] is 64%.

Regarding `Cc1cc(Oc2ccc(NC(=O)Nc3cccc(C(F)(F)F)c3)cc2)ccn1` [Example 30], the “Flt3 (% at 10 μM)” value in data set [1] is recorded as 100%.

With `Cc1ccc(NC(=O)Nc2ccc(Oc3ccncc3)cc2)cc1` [Example 4], the “Flt3 (% at 10 μM)” value in data set [1] came out at 98%.

On to `CCCc1ccc(NC(=O)N(C)c2ccc(Oc3ccncc3)cc2)cc1` [Example 7], for which the “Flt3 (% at 10 μM)” value in data set [1] is 67%.

For the compound `CCc1ccc(NC(=O)Nc2ccc(Cc3ccncc3)cc2)cc1` [Example 13], the “Flt3 (% at 10 μM)” value in data set [1] is 95%.
